# Read-outs that look alike come from different tables or passages of the source.
# Experiments:
# [1] = tested on: medulloblastoma cells derived from resistant Ptch+/−Hic+/− medulloblastoma tumors; assay: ex-vivo medulloblastoma proliferation assay (48 h, 3H thymidine incorporation), resistant tumors; type: cell-based, mouse; settings: for IC50: Mus musculus, Medulloblastoma cell
# Description: (§1) The effect of mTor inhibitors (e.g., compounds such as Compound A) on the proliferation of medulloblastoma cells derived from sensitive and resistant medulloblastoma tumors was evaluated by using an “ex-vivo medulloblastoma proliferation assay. Sensitive tumors means tumors (e.g., medulloblastomas) which, due to hedgehog pathway activation, respond to treatment with a smoothened inhibitor anti-cancer regimen. Resistant tumors means formerly sensitive tumors (e.g., medulloblastomas) which, in the continuos presence of a smo inhibitor, either have regrown after shrinking due to treatment, or have reappeared after being temporarily eliminated due to treatment. Resistant tumors show a decreased sensitivity or no response to smoothened inhibition.
# (§2) Using Ptch+/−Hic+/− medulloblastoma tumors freshly harvested from allografted nude mice, we have developed a short-term 48 h proliferation assay that enables us to assess the in vitro potency of Smo inhibitors. The read-out for proliferation uses incorporation of 3H thymidine. The assay reflects the in vivo sensitivity of tumor cells to Compound 1.
# (§3) Table 1 summarizes the results of treating medulloblastoma cells in culture with Compound 1 (Smo inhibitor) and Compound A (mTor inhibitor), or combinations thereof. […] The potency of compound A in resistant tumors was increased in the presence of 5 and 20 uM of compound 1.
# [2] = tested on: Ptch+/−Hic+/− medulloblastoma allograft; assay: Ptch+/−Hic+/− subcutaneous medulloblastoma allograft model; type: in vivo, Harlan nu/nu mice; settings: po; for effect on tumor growth / tumor volume: 80 mg/kg qd Compound 1, 10 mg/kg qd Compound A, or combination, FIG. 1
# Description: Mouse medulloblastoma cells (1.0-5.0×10^6), dissociated directly from tumor fragments originally derived from spontaneously arising medulloblastomas in Ptch+/−Hic+/− mice, were inoculated subcutaneously into the right flank of Harlan nu/nu mice. Treatment was initiated approximately 7-10 days post implantation. […] Tumor volumes (mm3) and body weights (g) were recorded two or three times per week from all groups for analysis. Dose was body weight adjusted at time of dosing. Comparisons between treatment groups was performed using a non-parametric Kruskal-Wallis/Wilcoxon Rank Sum Test.
# Tumors were calipered in two dimensions, and the volumes were calculated using the formula: (length×width2)/2, where length is the longer of the two measurements and width is the shorter one. Percent treatment/control (% T/C) values were calculated using the following formula: % T/C=100×ΔTf-i/ΔCf-i if ΔTf-i>0, % T/T0-100×ΔTf-i/T0 if ΔTf-i<0 (regression). A partial responder (PR) was defined as an animal whose tumor […] was less than 50% of the initial tumor volume by the end of the study. An animal with no palpable tumor by the end of study is defined as a complete responder (CR).
# Ptch+/− mice develop medulloblastoma spontaneously (Romer, et al., Cancer Cell, Volume 6, Issue 3, pages 229-24, 2004). […] The heterozygous loss of Hic results in an earlier onset and increases the incidence rate of medulloblastomas (Briggs et al., Genes & Dev., 22: pages 770-785 2008). The in vivo efficacy of Compound 1 was evaluated in Ptch+/−Hic+/− mouse medulloblastoma allograft models, derived from corresponding transgenic mice and passaged in vivo, and following long-term continuous dosing. The following experiments were performed to evaluate if mTor inhibitors could be used either alone or in combination to treat resistant tumors or to overcome the development of resistance to Smo antagonists.
# Next, a combination of Compound 1 and Compound A was explored in the Ptch+/−Hic+/− medulloblastoma allograft model.
# [3] = tested on: medulloblastoma cells derived from sensitive Ptch+/−Hic+/− medulloblastoma tumors; assay: ex-vivo medulloblastoma proliferation assay (48 h, 3H thymidine incorporation), sensitive tumors; type: cell-based; settings: Mus musculus, Medulloblastoma cell
# Description: as §1, §2, §3
# [4] = Tumor type Resistant, single agent, 48 h, 3H thymidine, read-out: IC50, proliferation of medulloblastoma cells
# [5] = Tumor type Sensitive, single agent, 48 h, 3H thymidine, read-out: IC50, proliferation of medulloblastoma cells
"IC50 [1, 4]","IC50 ([1]; resistant tumors, read-out: IC50 in resistant tumors)","IC50 [3, 5]","IC50 ([3]; sensitive cells, read-out: IC50, inhibition of sensitive cells)",Structure (SMILES),effect on tumor growth / tumor volume [2],"time to endpoint (tumor volume>700 mm3), in words ([2]; 80 mg/kg qd Compound 1, or combination with 10 mg/kg qd Compound A, FIG. 2)",potency of compound A in resistant tumors ([1]; in the presence of 5 and 20 uM of compound 1),inhibition of both sensitive and resistant tumors (comparison of IC50s) ([1]; resistant compared with sensitive tumors),"time to endpoint (tumor volume>700 mm3) ([2]; 10 mg/kg qd Compound A, FIG. 2)"
9080 nM,9000 nM,8 nM,8 nM,"Cc1c(C(=O)Nc2ccc(N3C[C@@H](C)O[C@@H](C)C3)nc2)cccc1-c1ccc(OC(F)(F)F)cc1 [Compound 1, 2-Methyl-4′-trifluoromethoxy-biphenyl-3-carboxylic acid [6-(cis-2,6-dimethyl-morpholin-4-yl)-pyridin-3-yl]-amide]",initially induced regression but tumors started to regrow,significantly prolonged,–,–,–
2 nM,–,9 nM,–,"CO[C@H]1C[C@@H]2CC[C@@H](C)[C@@](O)(O2)C(=O)C(=O)N2CCCC[C@H]2C(=O)O[C@H]([C@H](C)C[C@@H]2CC[C@@H](OCCO)[C@H](OC)C2)CC(=O)[C@H](C)/C=C(\C)[C@@H](O)[C@@H](OC)C(=O)[C@H](C)C[C@H](C)/C=C/C=C/C=C/1C [Compound A, (1R,9S,12S,15R,16E,18R,19R,21R,23S,24E,26E,28E,30S,32S,35R)-1,18-dihydroxy-12-{(1R)-2-[(1S,3R,4R)-4-(2-hydroxyethoxy)-3-methoxycyclohexyl]-1-methylethyl}-19,30-dimethoxy-15,17,21,23,29,35-hexamethyl-11,36-dioxa-4-aza-tricyclol-[30.3.1.04.9]hexatriaconta-16,24,26,28-tetraene-2,3,10,14,20-pentaone]",only a moderate effect on tumor growth compared to vehicle control,–,increased,inhibited both sensitive and resistant tumors with similar IC50s,~20 days

# From US20150025074A1, “METHODS AND COMPOSITIONS FOR TREATING SOLID TUMORS AND OTHER MALIGNANCIES” (priority 2009, published 2015)
